# Experimental data published in US5962501A, “Enantiomer of carbazole derivative as 5-HT1-like agonists” (SmithKline Beecham, p.l.c., priority 1992, dated 1999).
# Target: T1, 5-HT1 -like receptor (Oryctolagus cuniculus, UniProt P49144)
# T1 construct: Arteries were then cut into ring segments (ca 4-5 mm wide) and set up for recording of isometric tension; from tissue; host or cells: rabbit basilar artery rings, endothelium removed
# Test: 5-HT1-like receptor screen, rabbit isolated basilar artery (cumulative concentration-effect curves, isometric tension)
# Assay type: cell-based
# Conditions: in presence of ascorbate, indomethacin, cocaine, ketanserin and prazosin
# Experimental: 5-HT1 -like Receptor Screen
# In brief, rabbits were killed by overdose with anaesthetic (sodium pentobarbitone). The whole brain was quickly removed and immersed in ice cold modified Kreb's solution and the basilar artery removed with the aid of a dissecting microscope. […] The endothelium was removed by a gentle rubbing of the lumen with a fine metal wire. […] The arteries were then placed under a resting force of 3-4 mN maintained at 37° C. and the solution bubbled with 95% O2 /5% CO2.
# After tests for initial reactivity with 90 mM KCl depolarising solution and for lack of acetylcholine-induced relaxation of 5-HT ([…]) precontraction, cumulative concentration-effect curves ([…]) to 5-HT were constructed in the presence of ascorbate […], cocaine […], indomethacin […], ketanserin […] and prazosin […].
# Following a 45-60 min wash period, cumulative concentration-effect curves to the test compounds or 5-HT (as a time match control) were constructed in the presence of ascorbate, indomethacin, cocaine, ketanserin and prazosin.
# T1 sequence (P49144 whole entry): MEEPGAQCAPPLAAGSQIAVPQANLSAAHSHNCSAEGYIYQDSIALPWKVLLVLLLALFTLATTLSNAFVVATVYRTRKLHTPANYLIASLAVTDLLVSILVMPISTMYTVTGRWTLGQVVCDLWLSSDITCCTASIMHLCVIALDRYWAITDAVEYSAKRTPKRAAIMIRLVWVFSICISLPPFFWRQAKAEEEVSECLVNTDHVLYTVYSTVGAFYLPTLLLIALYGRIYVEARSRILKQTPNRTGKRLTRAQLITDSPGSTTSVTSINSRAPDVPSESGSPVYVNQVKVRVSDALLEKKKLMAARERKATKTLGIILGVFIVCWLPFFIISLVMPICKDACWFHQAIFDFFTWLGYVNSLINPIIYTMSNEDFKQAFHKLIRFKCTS
compound,measurement,value
"CN[C@H]1CCc2[nH]c3ccc(C(N)=O)cc3c2C1 [Compound B, S-(-)-6-carboxamido-3-N-methylamino-1,2,3,4-tetrahydrocarbazole]",EC50,> 2000 nM
